Laboratory results from patent US20220362396A1, “AMINO-PYRAZINECARBOXAMIDE COMPOUNDS, CONJUGATES, AND USES THEREOF” (Silverback Therapeutics, Inc., priority 2018, published 2022).
“Also recorded” adds a separate entry of the source.

Columns and labels:
[1] = tested on: TGFβ-inducible genes in BXPC3 tumors; assay: Intra-tumoral injection of TGFβR2 inhibitors, BXPC3 xenograft, RT-qPCR of tumors; format: in vivo, nude mice; conditions: BXPC3, 2 ug intra-tumoral QD5, tumors 4 h after last injection, vs DMSO vehicle
Protocol: (§1) TGFβR2 inhibitors were tested for their ability to alter expression in vivo of a set of genes reported to be regulated by TGFβ, particularly those associated with tumor CAFs. Two million BXCP3 (ATTC) or 5 million PANC-1 (ATTC) cells in Matrigel (Corning Life Sciences) were inoculated into the flanks of nude mice (JAX Labs) and allowed to grow to approximately 100 mm3 in size before sorting into cohorts for treatment. BXPC3 tumors were treated by intra-tumoral injection (IT) of 2 ug QD5 of either compound 211, compound 171 or equal volume of DMSO vehicle while PANC-1 tumors received 2 ug injections QD5 of compound 211 or vehicle control. Four hours after the last injection tumors were removed and processed for RT-qPCR by homogenization in M tubes (Miltenyi Biotec) using Purelink RNA Kit (Ambion) to isolate RNA and Taqman® RNA to CT 1 Step Kit (Applied Biosystems) with a OneStepPlus Thermocycler. Gene specific primers were obtained from ThermoFisher Scientific. […] Data was analyzed and graphed using GraphPad Prism v8.1.0. Statistical difference for gene mRNA expression between TGFβR2 inhibitor and vehicle treated cohorts was determined using multiple T test comparison with discovery (FDR) by the two-stage linear step-up procedure of Benjamini, Krieger and Yekutieli, with Q=5%. Each row was analyzed individually, without assuming a consistent SD.

[2] = tested on: TGFβ/SMAD Signaling Pathway SBE reporter cell line; assay: TGFβ reporter assay, in vitro small molecule screening (luciferase); format: cell-based; conditions: TGFβ stimulation, luminescence
How it was run: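 SBE luciferase reporter cells (~0.5×10^6 cells/mL) preincubated with compound 5-6 h at 37 °C in 0.5% FBS MEM, then stimulated with TGFβ (12 ng/mL stock) for 18 h. Luminescence read after luciferase substrate; EC50 from curve fits.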

[3] = tested on: TGFβ-inducible genes in PANC-1 tumors; assay: Intra-tumoral injection of TGFβR2 inhibitors, PANC-1 xenograft, RT-qPCR of tumors; format: in vivo, nude mice; conditions: PANC-1, 2 ug intra-tumoral QD5, tumors 4 h after last injection, vs DMSO vehicle
Protocol: as §1

TGFBR2 = molecular target: T1, TGFBR2 (Homo sapiens, UniProt P37173); assay: TGFBR2 RBC assay (enzyme inhibition assay, Reaction Biology Corp.); format: biochemical
T1 construct: purchased Reaction Biology Corp
Protocol: Compounds of the disclosure were also assayed by Reaction Biology Corp. using the TGFBR2 RBC assay (enzyme inhibition assay). […] NT refers to not tested.

[4] = tested on: elastin gene expression in LL97a cells; assay: qPCR of TGFβ-induced elastin mRNA in LL97a IPF fibroblasts; format: cell-based, human; conditions: small molecules, TGFβ 24 hours, concentration dependent
Protocol: (§2) The ability of select small molecules to lower a TGFβ 1-induced mRNA were tested in assays with the cell line LL97a (ATCC) as follows. LL97a cells were seeded in 96 well plates at 10,000 cells/well in DMEM+10% FBS+1% NaPyr, +1% L-glut, +1% NEAA, +1% HEPES+0.5% Pen/Strep. The following day test articles and controls were added at varying concentrations in assay media of DMEM+0.5% BSA along with 0.5 ng/mL TGFβ1 (PeproTech Inc.) was added to wells. After 24 hours or 48 hours incubation with TGFβ1 at 37 C in a 5% CO2 environment RNA was prepared from cells and QPCR performed for the TGFβ-inducible genes αSMA and elastin as well as the non-inducible control gene RPLPO with a Tagman® Gene Expression Cells-to-CT 1—Step Kit (Life Technologies Inc.) and with a One Step Plus Thermocycler (Applied Biosystems) as per manufacturers' recommendations. Primer probe sets were obtained from ThermoFisher Scientific.

[5] = tested on: αSMA gene expression in LL97a cells; assay: qPCR of TGFβ-induced αSMA mRNA in LL97a IPF fibroblasts; format: cell-based, human; conditions: small molecules, TGFβ 24 hours, concentration dependent
Protocol: as §2
Compounds 2.1 and 171 were covalently attached to an anti-LRRC15 antibody using different protease cleavable PABC linkers. […] Average DAR level of the purified species was determined by analysis via hydrophobic interaction chromatography (HIC) using TSK-gel butyl NPR (Tosoh Bioscience LLC) and by LCMS (Waters Corp.) and they were tested for their ability to reduce αSMA and elastin gene induction by TGFβ in the LL97a and NHLF human fibroblast cell lines using a qPCRassay. […]

T1 sequence (P37173 23-567): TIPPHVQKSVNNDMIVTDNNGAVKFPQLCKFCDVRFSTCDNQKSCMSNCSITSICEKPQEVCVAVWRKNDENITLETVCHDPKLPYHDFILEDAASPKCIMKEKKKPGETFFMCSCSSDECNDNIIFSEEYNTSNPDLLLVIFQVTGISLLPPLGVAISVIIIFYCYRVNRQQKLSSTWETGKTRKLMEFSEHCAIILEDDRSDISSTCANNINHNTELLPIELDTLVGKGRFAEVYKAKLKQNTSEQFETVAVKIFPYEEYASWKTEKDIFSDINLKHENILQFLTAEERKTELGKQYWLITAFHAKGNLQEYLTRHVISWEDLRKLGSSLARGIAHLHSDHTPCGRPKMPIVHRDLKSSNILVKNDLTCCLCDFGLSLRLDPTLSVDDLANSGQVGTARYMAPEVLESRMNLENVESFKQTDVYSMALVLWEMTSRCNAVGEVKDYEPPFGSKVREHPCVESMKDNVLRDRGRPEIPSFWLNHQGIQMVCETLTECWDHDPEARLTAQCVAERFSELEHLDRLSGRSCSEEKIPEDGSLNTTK

| EC50 [2] | IC50 (TGFBR2) | SMILES | mRNA level of TGFβ-inducible genes in tumors [1] | mRNA level of TGFβ-inducible genes in tumors [3] | inhibition of TGFβ-induction of elastin gene expression [4] | inhibition of TGFβ-induction of αSMA gene expression [5] |
| --- | --- | --- | --- | --- | --- | --- |
| < 50 nM | < 50 nM | CC(CN)Oc1ccc(-c2cnc(N)c(C(=O)Nc3cnccc3N3CCOCC3)n2)cc1 (centres unmarked) [Compound 211] | reduce the mRNA level; also recorded: reduced the mRNA level of most TGFβ-inducible genes | reduces the mRNA level; also recorded: decreased many TGFβ-inducible gene mRNAs | – | – |
| 100 to 1000 nM | < 50 nM | Nc1ncc(-c2ccc3c(c2)C(O)CC3)nc1C(=O)Nc1cnccc1N1CCOCC1 (centres unmarked) [Compound 250] | – | – | inhibits | inhibits |
